Data on 10 compounds can be found in ChEMBL document CHEMBL1131894, “N-phenylalkyl-substituted tropane analogs of boat conformation with high selectivity for the dopamine versus serotonin transporter” (Bioorg Med Chem Lett, 1999).

As usually defined, the Ki is the equilibrium dissociation constant of an inhibitor or competing ligand from its target.

Test [1] has as its target Sodium-dependent serotonin transporter (Rattus norvegicus, UniProt P31652). The test can be described thus: Inhibition of [3H]5-HT uptake at striatal nerve endings by serotonin transporter.
The nature of test [2]: Selectivity of uptake of 5-HT to DA. The test is classed as functional.
Test [3] addresses T1, Sodium-dependent dopamine transporter (Rattus norvegicus, UniProt P23977). Kind of test: Inhibition of [3H]dopamine uptake at striatal nerve endings by dopamine transporter.
The target in test [4] is T1, Sodium-dependent dopamine transporter. The test can be described thus: Displacement of [3H]mazindol from cocaine binding site on Dopamine transporter (DAT). Background: In a radioligand displacement assay an active substance lowers the binding of a labelled ligand.

Sequence of Sodium-dependent serotonin transporter (P31652 whole entry): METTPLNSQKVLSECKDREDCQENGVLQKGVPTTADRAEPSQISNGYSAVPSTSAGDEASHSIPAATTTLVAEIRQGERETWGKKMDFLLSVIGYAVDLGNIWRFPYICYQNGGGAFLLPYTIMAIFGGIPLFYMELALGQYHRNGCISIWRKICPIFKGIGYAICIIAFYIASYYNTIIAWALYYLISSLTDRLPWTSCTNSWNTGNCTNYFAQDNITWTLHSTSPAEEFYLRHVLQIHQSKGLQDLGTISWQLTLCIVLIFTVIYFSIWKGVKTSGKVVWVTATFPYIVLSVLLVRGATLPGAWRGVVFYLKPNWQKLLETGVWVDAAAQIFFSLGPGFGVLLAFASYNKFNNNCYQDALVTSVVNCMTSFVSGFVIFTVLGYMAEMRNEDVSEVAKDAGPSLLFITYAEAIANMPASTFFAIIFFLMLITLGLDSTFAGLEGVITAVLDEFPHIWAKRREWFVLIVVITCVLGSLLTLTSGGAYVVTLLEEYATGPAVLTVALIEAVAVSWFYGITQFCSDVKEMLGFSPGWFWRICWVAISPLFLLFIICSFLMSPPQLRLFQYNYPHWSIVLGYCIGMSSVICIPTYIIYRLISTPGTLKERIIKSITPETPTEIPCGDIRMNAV
T1 sequence (P23977 whole entry): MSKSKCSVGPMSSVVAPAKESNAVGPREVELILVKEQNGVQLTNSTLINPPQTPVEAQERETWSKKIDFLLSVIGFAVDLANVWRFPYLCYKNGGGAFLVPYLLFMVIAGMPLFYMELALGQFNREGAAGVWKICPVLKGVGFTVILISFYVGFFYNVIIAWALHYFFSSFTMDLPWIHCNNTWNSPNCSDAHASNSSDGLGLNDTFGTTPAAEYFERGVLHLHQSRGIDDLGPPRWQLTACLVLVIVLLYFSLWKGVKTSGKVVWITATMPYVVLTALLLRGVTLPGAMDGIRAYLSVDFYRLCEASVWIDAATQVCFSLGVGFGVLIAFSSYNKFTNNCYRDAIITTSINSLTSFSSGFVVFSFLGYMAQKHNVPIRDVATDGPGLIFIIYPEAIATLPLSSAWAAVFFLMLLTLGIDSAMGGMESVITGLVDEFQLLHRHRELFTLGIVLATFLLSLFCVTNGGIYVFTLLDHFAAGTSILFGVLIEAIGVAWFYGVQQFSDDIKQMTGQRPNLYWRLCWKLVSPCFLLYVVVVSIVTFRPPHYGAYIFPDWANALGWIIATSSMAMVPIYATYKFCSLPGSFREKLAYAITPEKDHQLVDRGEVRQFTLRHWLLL

Consider `CN1C2CC[C@@H]1C[C@@H](c1ccc(F)cc1)C2c1ccc(F)cc1` (some centres undefined), for which the Ki was 460 nM in test [1], 14 nM in test [3] and 31 nM in test [4]. The compound further returned a Selectivity in test [2] of 33.
For the compound `Fc1ccc(C2C3CCC(C[C@H]2c2ccc(F)cc2)N3)cc1` (some centres undefined), the inhibition constant (Ki) in test [1] came out at 41 nM; in test [3] it was 17 nM; in test [4] it was 49 nM. The compound also had a Selectivity in test [2] of 2.4.
As to `Cc1ccc([C@@H]2C[C@H]3CCC(C2c2ccccc2)N3CCc2ccccc2)cc1` (some centres undefined), the inhibition constant (Ki) stood at 180 nM in test [1], 1.6 nM in test [3] and 0.95 nM in test [4]. Moreover, the Selectivity in test [2] is 113.
The like results for `Fc1ccc(C2C3CC[C@H](C[C@H]2c2ccc(F)cc2)N3CCCc2ccccc2)cc1` (some centres undefined) were, in that order, 608 nM, 43 nM, 16 nM and 14.
Consider `Fc1ccc(C2C3CC[C@H](C[C@H]2c2ccc(F)cc2)N3CCc2ccccc2)cc1` (some centres undefined), for which the inhibition constant (Ki) in test [1] was above 1.3 nM; in test [3], 26 nM; in test [4] it was 10 nM. For the same compound, the Selectivity in test [2] is above 50.
The like results for `Fc1ccc(OCCN2C3CC[C@@H]2C[C@@H](c2ccc(F)cc2)C3c2ccc(F)cc2)cc1` (some centres undefined) were, in that order, 928 nM, 27 nM, 22 nM and 34.
For the compound `Cc1ccc([C@@H]2C[C@H]3CCC(C2c2ccccc2)N3C)cc1` (some centres undefined), the Ki stood at 120 nM in test [1], 4.6 nM in test [3] and 6 nM in test [4]. Also, in test [2], the Selectivity worked out at 26.
With `Fc1ccc(C2C3CC[C@H](C[C@H]2c2ccc(F)cc2)N3CCCCc2ccccc2)cc1` (some centres undefined), the results for the inhibitory constant (Ki) in test [1], in test [3] and in test [4] were 110 nM, 210 nM and 86.4 nM, respectively. In test [2], this compound gave a Selectivity of 0.52.
As for `Fc1ccc(C2C3CC[C@H](C[C@H]2c2ccc(F)cc2)N3CCC(c2ccccc2)c2ccccc2)cc1` (some centres undefined), the Ki is above 20000 nM in test [1], above 10000 nM in test [3] and above 7000 nM in test [4].
Turning to `Fc1ccc(C2C3CC[C@H](C[C@H]2c2ccc(F)cc2)N3Cc2ccccc2)cc1` (some centres undefined), the Ki in test [1] amounted to 490 nM; in test [3], 170 nM; in test [4], 260 nM. This compound also gave a Selectivity in test [2] of 2.9.
